Data on eight molecules can be found in article PMC11223215, “Metronidazole Interaction with Cu^2+ and Zn^2+: Speciation Study in Aqueous Solution and Biological Activity Evaluation” (ACS Omega, 2024).

Structures are written as SMILES. Values after ≈ are worked out from the molar mass of the structure shown. Read-outs that look alike come from different tables or passages of the source.

Series [1] relates to Trypanosoma cruzi Tulahuen CL2 amastigote stage. The series is described as follows: In vitro activity against T. cruzi. The series is classed as cell-based. Particulars: T. cruzi Tulahuen CL2 amastigotes on MRC-5 cells, 7 days. As for the experimental part: (§1) Briefly, S. aureus and E. coli were cultured in MHT (Mueller Hinton Broth) and maintained on TSA (Tryptone Soy Agar). T. cruzi, Tulahuen CL2 galactosidase strain (nifurtimox- sensitive), was maintained on MRC-5SV2 (human lung fibroblast) cells in MEM medium, supplemented with 200 mmol L^–1L-glutamine, 16.5 mmol L^–1 NaHCO3, and 5% inactivated fetal calf serum. The T. b. brucei Squib 427 strain (suramine-sensitive) and T. b. rhodesiense STIB-900 strain were maintained in Hirumi’s Modified Iscove’s medium-9 (HMI-9) medium, supplemented with 10% inactivated fetal calf serum. MRC-5SV2 cells were cultured in MEM + Earle’s salts-medium, supplemented with 2 mmol L^–1L-glutamine, 16.5 mmol L^–1 NaHCO3, and 5% inactivated fetal calf serum. All cultures were incubated at 37 °C under an atmosphere of 5% CO2.
The assay was performed at 37 °C under an atmosphere of 5% CO2 in sterile 96-well microtiter plates, each well containing 10 μL of the aqueous compound together with MRC-5 cell/parasite inoculum (190 μL; 4 × 10^3 cells/well + 4 × 10^4 parasites/well). The compounds were tested at 64, 16, 4, 1, and 0.25 μmol L^–1. Parasite growth was compared to that of untreated-infected controls and uninfected controls. After 7 days of incubation, parasite burdens were assessed after adding the substrate CPRG [chlorophenolred β-D-galactopyranoside; 50 μL/well of a solution of CPRG (15.2 mg); and Nonidet (250 μL) in PBS (100 mL)]. The sample was analyzed spectrophotometrically at 540 nm after 4 h. The results were expressed as % reduction in parasite burden compared to control wells, and an IC50 was calculated.

The test system of series [2] is Leishmania infantum (intracellular amastigotes). The series is described as follows: In vitro activity against L. infantum. Type of series: cell-based.
Series [3] concerns MRC-5 human fetal lung fibroblasts. The series is described as follows: Cytotoxicity on MRC-5 cells. The series is classed as cell-based. As to conditions: MRC-5 human fetal lung fibroblasts cytotoxicity. On the procedure: (§2) Briefly, S. aureus and E. coli were cultured in MHT (Mueller Hinton Broth) and maintained on TSA (Tryptone Soy Agar). […] The T. b. brucei Squib 427 strain (suramine-sensitive) and T. b. rhodesiense STIB-900 strain were maintained in Hirumi’s Modified Iscove’s medium-9 (HMI-9) medium, supplemented with 10% inactivated fetal calf serum. […] All cultures were incubated at 37 °C under an atmosphere of 5% CO2. The assays were performed at 37 °C in sterile 96-well microtiter plates, each well containing 10 μL of aqueous compound together with a bacterial/fungal/MRC-5 inoculum (190 μL; 5 × 10^3 CFU/mL). The compounds were tested at 64, 16, 4, 1, and 0.25 μ-mol L^–1. Bacterial/fungal/MRC-5 growth was compared to untreated-control wells (100% growth) and medium-control wells (0% cell growth). After 3 days of incubation, 50 μL of resazurin was added in each well. After 30 min at 37 °C, the fluorescence was measured at λex = 550 nm and λem = 590 nm. The results are expressed as % reduction in cell growth/viability compared to control wells, and IC50 values were determined.

Series [4] concerns Aspergillus fumigatus. The series is described as follows: In vitro activity against A. fumigatus. The series is classed as cell-based. On the procedure: (§3) The assays were performed at 37 °C in sterile 96-well microtiter plates, each well containing 10 μL of aqueous compound together with a bacterial/fungal/MRC-5 inoculum (190 μL; 5 × 10^3 CFU/mL). The compounds were tested at 64, 16, 4, 1, and 0.25 μ-mol L^–1. Bacterial/fungal/MRC-5 growth was compared to untreated-control wells (100% growth) and medium-control wells (0% cell growth). After 3 days of incubation, 50 μL of resazurin was added in each well. After 30 min at 37 °C, the fluorescence was measured at λex = 550 nm and λem = 590 nm. The results are expressed as % reduction in cell growth/viability compared to control wells, and IC50 values were determined.

The test system of series [5] is Trypanosoma brucei rhodesiense STIB900 strain, drug susceptible, trypomastigote stage. The series is described as follows: In vitro activity against T. b. rhodesiense. The series is classed as cell-based. As to conditions: T. b. rhodesiense STIB900 trypomastigotes, 3 days, resazurin. On the procedure: as §1
(§4) The assay was performed at 37 °C under an atmosphere of 5% CO2 in sterile 96-well microtiter plates, each well containing the aqueous compound (10 μL) dilution together with the parasite suspension [190 μL; 1.5 × 10^3 parasites/well (T. b. brucei) or 4 × 10^3 parasites/well (T. rhodesiense)]. The compounds were tested at 64, 16, 4, 1, and 0.25 μmol L^–1. Parasite growth was compared to untreated-infected controls and uninfected controls. After 3 days of incubation, parasite growth was assessed fluorimetrically after addition of resazurin [50 μL; 50 μg/mL in phosphate buffer] to each well. After 6 h (T. b. rhodesiense) or 24 h (T. b. brucei) at 37 °C, fluorescence was measured (λex 550 nm, λem 590 nm). The results were expressed as % reduction in parasite growth/viability compared to control wells, and an IC50 was calculated.
In general terms: Alamar Blue is a resazurin reagent that responds to reducing activity.

The subject of series [6] is Candida albicans. The series is described as follows: In vitro activity against C. albicans. The series is classed as cell-based. As for the experimental part: as §3
The subject of series [7] is Trypanosoma brucei brucei Squib-427 strain, suramin-sensitive, trypomastigote stage. The series is described as follows: In vitro activity against T. b. brucei. Type of series: cell-based. Particulars: T. b. brucei Squib-427 trypomastigotes, 3 days, resazurin. On the procedure: as §1, §4
In series [8] the test system is Primary peritoneal mouse macrophages (PMM). The series is described as follows: Cytotoxicity on primary peritoneal mouse macrophages. Type of series: cell-based.
The test system of series [9] is Escherichia coli. The series is described as follows: In vitro activity against E. coli. Type of series: cell-based. As to conditions: resazurin. On the procedure: as §1, §3
In series [10] the test system is Staphylococcus aureus. The series is described as follows: In vitro activity against S. aureus. Type of series: cell-based. Particulars: resazurin. On the procedure:
as §1, §3

Series [11] can be described thus: Cytotoxicity on MRC-5 cells. Type of series: cell-based. As to conditions: MRC-5 SV2 human fetal lung fibroblasts; MRC-5 human fetal lung fibroblasts cytotoxicity. As for the experimental part: as §2
Series [12] can be described thus: Sequestering ability of MNZ (pL0.5) toward Zn2+. The series is classed as physicochemical. As to conditions: toward Zn^2+, t = 37 °C, I = 0.15 mol L^–1, pH = 7.4. The source says:
(§5) The tendency of a ligand to complex a free metal cation in solution to form metal–ligand species is expressed as the sequestering ability. To describe the sequestering ability of a ligand toward a certain metal cation, however, the mere knowledge of formation constants is not enough as it is necessary to consider all the possible interactions that both ligand and metal cation may have with all the species present in solution. In order to define it quantitatively, the empirical parameter pL0.5 was introduced, which represents the cologarithm of the ligand concentration necessary to sequester 50% of the metal cation in traces.[34],[35] The calculation is based on the following Boltzmann-type sigmoidal equation: [drawing 33] 3 where χ is the sum of molar fractions of the different complex species and pL is the cologarithm of the total ligand concentration.
(§6) A comparison between the sequestering ability of MNZ toward Zn^2, Cu^2+, and Ca^2+ (one of the main metal cations present in human body and previously studied in our recent work[30]) was evaluated under physiological conditions.

Series [13] in a line: Sequestering ability of MNZ (pL0.5) toward Ca2+. Type of series: physicochemical. As to conditions: toward Ca^2+, t = 37 °C, I = 0.15 mol L^–1, pH = 7.4.
Excerpt: as §5, §6

The nature of series [14]: Cytotoxicity on primary peritoneal mouse macrophages. Particulars: primary peritoneal mouse macrophages (PMM). The series is classed as cell-based.
Series [15] can be described thus: Sequestering ability of MNZ (pL0.5) toward Cu2+. The series is classed as physicochemical. As to conditions: toward Cu^2+, t = 37 °C, I = 0.15 mol L^–1, pH = 7.4.
Excerpt: as §5, §6

The mark [16] stands for this setting: Trypanosoma cruzi, MRC5, 168 h, read-out: IC50.
Setting [17] is: Escherichia coli, read-out: IC50.
Setting [18] is: Staphylococcus aureus, read-out: IC50.
[19] abbreviates: Candida albicans, read-out: IC50.
The mark [20] stands for this setting: Leishmania infantum, read-out: IC50.
Where [21] appears, read: Trypanosoma brucei, 72 h, read-out: IC50.

For the molecule `O=C(Cn1ccnc1[N+](=O)[O-])NCc1ccccc1` [Benznidazol], the IC50 in [1] (setting [16]) was 0.43 µg/mL (≈ 1.65 µM).

Consider `[Cl][Cu][Cl]` [Cu^2+], for which the IC50 in series [2] is greater than 2.42 µg/mL; in series [4] it was greater than 2.42 µg/mL; in [5], 0.94 µg/mL; in series [6] it was greater than 2.42 µg/mL; in [7], 0.75 µg/mL; in series [1] it was greater than 2.42 µg/mL. Further, the IC50 in [9] and in series [10] was greater than 2.42 µg/mL each time. The cytotoxic concentration (CC50) in series [3] and in [8] was greater than 2.42 µg/mL in each case.

For the molecule `C[C@H]1c2cccc(O)c2C(=O)C2=C(O)[C@]3(O)C(=O)C(C(N)=O)=C(O)[C@@H](N(C)C)[C@@H]3[C@@H](O)[C@@H]21` [Doxycycline], the half-maximal inhibitory concentration (IC50) was 0.64 µg/mL (≈ 1.44 µM) in series [9] (setting [17]) and 0.08 µg/mL (≈ 0.18 µM) in series [10] (setting [18]).

On to `Nc1[nH]c(=O)ncc1F` [Flucytosine], for which the IC50 in series [6] (setting [19]) was determined as 0.51 µg/mL (≈ 3.95 µM).

For `Cc1ncc([N+](=O)[O-])n1CCO` [MNZ(L), 2-methyl-5-nitro-1H-imidazole-1-ethanol], the IC50 in series [2] (setting [20]) was greater than 5.64 µg/mL; in series [4] (Aspergillus fumigatus, read-out: IC50) it was greater than 5.64 µg/mL; in series [5] (setting [21]), greater than 5.64 µg/mL; in series [6] (setting [19]) it was greater than 5.64 µg/mL; in [7] (setting [21]), greater than 5.64 µg/mL; in series [1] (setting [16]) it was greater than 5.64 µg/mL. In addition, the concentration for half-maximal inhibition (IC50) in [9] (setting [17]) and in series [10] (setting [18]) was greater than 5.64 µg/mL throughout. Also, the cytotoxic concentration (CC50) at 3 days in series [11] was greater than 5.64 µg/mL. The pL0.5 amounted to 3.1 in [12], 1.9 in series [13] and 4.3 in series [15]. In addition, the cytotoxic concentration (CC50) in [14] was greater than 5.64 µg/mL.

Consider `CCCCCCCCCCCCCCCCOP(=O)([O-])OCC[N+](C)(C)C` [Miltefosine], for which the IC50 in [2] (setting [20]) stood at 2.05 µg/mL (≈ 5.03 µM).

Turning to `Cc1ccc(C(=O)Nc2ccc(S(=O)(=O)O)c3cc(S(=O)(=O)O)cc(S(=O)(=O)O)c23)cc1NC(=O)c1cccc(NC(=O)Nc2cccc(C(=O)Nc3cc(C(=O)Nc4ccc(S(=O)(=O)O)c5cc(S(=O)(=O)O)cc(S(=O)(=O)O)c45)ccc3C)c2)c1` [Suramine], the results for the IC50 in series [5] (setting [21]) and in series [7] (setting [21]) were 0.07 µg/mL (≈ 0.054 µM) and 0.03 µg/mL (≈ 0.0231 µM), respectively.

As for `[Cl-].[Cl-].[Zn+2]` [Zn^2+], the concentration for half-maximal inhibition (IC50) in series [2], in series [4], in series [5], in series [6], in series [7] and in series [1] was greater than 1.79 µg/mL throughout. Moreover, the half-maximal inhibitory concentration (IC50) in [9] and in [10] was greater than 1.79 µg/mL each time. Besides, the CC50 in [3] and in series [8] was greater than 1.79 µg/mL throughout.

The IC50 is the concentration at which inhibition is half-maximal. A word on the CC50: it is the concentration at which the toxic effect on the cells reaches its halfway point. Higher therefore signals better tolerance by the cells.
